From patent publication US10632181B2, “Composition, containing RGD motif-containing peptide or fragment thereof, for treating burns and glaucoma, alleviating skin wrinkles, and promoting hair growth” (HUONS CO., LTD., priority 2014, dated 2020)
Positions of bridges follow the written chain, without caps; N, C: chain ends. No end group written: not given here.

Key:
[1] = system: glaucoma animal model having microbead-induced elevated intraocular pressure; assay: Glaucoma test: intraocular pressure; type: in vivo, mouse; conditions: for intraocular pressure change: 20 ug/ml applied to eye once daily
Method: (§1) For control drug, Taflotan eye drops (Santen Pharmaceutical Co., Ltd.) were used, and for test drug, Taflotan eye drops+HU024 (SEQ ID NO:2) (sample 1), HU024 (SEQ ID NO:2) (sample 2), HU025 (SEQ ID NO:3) (sample 3), HU026 (SEQ ID NO:4) (sample 4), and HU027 (SEQ ID NO:5) (sample 5) were used, and testing was performed on glaucoma animal model having microbead-induced elevated intraocular pressure. In experimental animal model, Rompun solution for injection and zoletil were mixed and used to put the experimental animal under anesthesia, topical anesthetic Alcaine was applied to eye, 1×106 microbead/mL 1 μL was injected into anterior chamber using micro glass needle to induce an increase in intraocular pressure for 2 weeks (IOVS 2011 Vol. 52 36-).
(§2) The control drug and 5 samples were provided to the experimental animal having the elevated intraocular pressure for 2 weeks, 5 samples were applied to eye once daily, comparative verification of efficacy was performed, and intraocular pressure reduction and optic nerve cell in the retina was observed through administration for 4 weeks.
(§3) The intraocular pressure was measured using a contact-type intraocular pressure meter Tono lab's tonometer TV02 model. […] In 5-7 days after fluorescent probe injection, the eye was enucleated and fixed in 4% paraformaldehyde at room temperature for 4 hours. The retina was separated from choroid of the fixed eye and mounted on a slide. In each experimental group slide, optic nerve cell expressing fluorescence was detected using fluorescence microscope, images were taken at a magnification of ×40 and ×200, and data was collected.

[2] = system: optic nerve cell in the retina of glaucoma animal model; assay: Glaucoma test: optic nerve cell in the retina (Fluorogold); type: in vivo, mouse; conditions: applied to eye once daily, Fluorogold labelling
Method: as §1, §2, §3

[3] = Hair growth test: body weight; type: in vivo; conditions: skin
Method: (§4) This test was conducted to assess the influence on hair growth of C57BL/6 mouse when 4 types of test substances, HU024 (SEQ ID NO:2), HU025 (SEQ ID NO:3), HU026 (SEQ ID NO:4), and HU027 (SEQ ID NO:5), were applied to the skin for 14 days.
(§5) The group design was set to negative control (sterile water for injection G1), test substance HU024 (SEQ ID NO:2) 20 ug/head/day (G2), test substance HU024 (SEQ ID NO:2) 60 ug/head/day (G3), test substance HU025 (SEQ ID NO:3) 20 ug/head/day (G4), test substance HU025 (SEQ ID NO:3) 60 ug/head/day (G5), test substance HU026 (SEQ ID NO:4) 20 ug/head/day (G6), test substance HU026 (SEQ ID NO:4) 60 ug/head/day (G7), test substance HU027 (SEQ ID NO:5) 20 ug/head/day (G8), test substance HU027 (SEQ ID NO:5) 60 ug/head/day (G9) and positive control minoxyl 3% (G10) administered groups. Each group had 10 animals.
(§6) After the animal was put under anesthesia using zoletil (1 mL/kg, i.p), the back of the animal was primarily shaved using a depilator, and Veet depilatory was evenly applied on the back. After about 5 minutes, the applied site was cleaned up using gauze moistened with sterile water for injection. Only animal whose shaved back was scarlet in color was used for group separation. The test substance was applied to the same site daily once per day, 7 times per week for 14 days, and the test substance was evenly applied to the shaved site (on the back) by rubbing with a glass rod about 10 times.
The test item was measurements of dead animal, general syndrome, weight change, hair growing area and hair weight, and comparison with negative control was conducted.
(§7) The measurement results were analyzed using SPSS (ver. 10.1K), Duncan t-test for weight changes was conducted through one-way analysis of variance, hair weight was compared between groups using Student's t-test, and hair growing area was compared between groups through nonparametric multiple comparison procedures Whitney-Mann methods. P<0.05 was determined to be statistically significant.

[4] = system: hair growth of C57BL/6 mouse; assay: Hair growth test: hair weight; type: in vivo
Method: as §4, §5, §6
(§8) The hair growing area (%) relative to the test substance-applied area was measured and determined, and Image analyzer program (Image Pro Plus ver. 6.3, Cybermetics, USA) was used to measure. It was measured on the 1st, 3rd, 7th, 10th and 14th days after test substance administration. Imaging was performed together with the measurements on the date when the hair area was measured. On the next day after the end of application, the animals were killed by CO2 gas, and hair on the hair growing area was removed by a depilator and hair weight was measured.
as §7

[5] = system: hair growth of C57BL/6 mouse; assay: Hair growth test: hair growing area; type: in vivo
Method: as §4, §5, §6
as §8, with “It was measured on the 1st, 3rd, 7th, 10th and 14th days after test substance administration.” left out
as §7

Molecule	optic nerve cell death / protection [2]	intraocular pressure change [1]	BODY WEIGHTS ([3]; 20 ug/head/day, Day 1) [g]	BODY WEIGHTS ([3]; 20 ug/head/day, Day 7) [g]	BODY WEIGHTS ([3]; 20 ug/head/day, Day 11) [g]	BODY WEIGHTS ([3]; 60 ug/head/day, Day 1) [g]	BODY WEIGHTS ([3]; 60 ug/head/day, Day 7) [g]	BODY WEIGHTS ([3]; 60 ug/head/day, Day 11) [g]	HAIR WEIGHTS ([4]; 20 ug/head/day for 14 days) [g]	HAIR WEIGHTS ([4]; 60 ug/head/day for 14 days) [g]	HAIR AREA (%) ([5]; 20 ug/head/day, Day 1)	HAIR AREA (%) ([5]; 20 ug/head/day, Day 4)	HAIR AREA (%) ([5]; 20 ug/head/day, Day 7)	HAIR AREA (%) ([5]; 20 ug/head/day, Day 10)	HAIR AREA (%) ([5]; 20 ug/head/day, Day 14)	HAIR AREA (%) ([5]; 60 ug/head/day, Day 1)	HAIR AREA (%) ([5]; 60 ug/head/day, Day 4)	HAIR AREA (%) ([5]; 60 ug/head/day, Day 7)	HAIR AREA (%) ([5]; 60 ug/head/day, Day 10)	HAIR AREA (%) ([5]; 60 ug/head/day, Day 14)	also measured
CC(C)OC(=O)CCC/C=C\C[C@@H]1[C@@H](/C=C/C(F)(F)COc2ccccc2)[C@H](O)C[C@@H]1O [Tafluprost, reference compound]	protection from optic nerve cell death was observed	–	–	–	–	–	–	–	–	–	–	–	–	–	–	–	–	–	–	–	intraocular pressure numerical value ([1]; positive control, eye drops): 15.9±2.9 mmHg; intraocular pressure reduction as compared to negative control ([1]; positive control, eye drops): 20.89%
HU026 (TRGDCDLPEFCP; disulfide 5-11; listed as Homo sapiens)	protection from optic nerve cell death was observed	the intraocular pressure did not reduce	21.20 ± 0.77	22.48 ± 1.12	23.75 ± 1.27	21.58 ± 0.61	22.80 ± 1.03	23.83 ± 1.30	0.021 ± 0.008	0.026 ± 0.007	0.10 ± 0.05	0.13 ± 0.07	0.43 ± 0.30	7.67 ± 4.54	56.64 ± 12.26	0.07 ± 0.04	0.22 ± 0.13	0.69 ± 0.37	13.54 ± 4.75	65.41 ± 11.62	–
NH2—RPTRGDCDLPEFCPG—COOH (H-RPTRGDCDLPEFCPG-OH; cysteine pairing not given here; listed as Homo sapiens) [HU025]	protection from optic nerve cell death was observed	had an effect in reducing the intraocular pressure	21.20 ± 1.23	22.63 ± 1.01	23.77 ± 1.17	21.53 ± 0.63	23.20 ± 0.83	24.23 ± 1.02	0.005 ± 0.002	0.021 ± 0.007	0.04 ± 0.03	0.06 ± 0.05	0.47 ± 0.22	2.04 ± 0.66	39.88 ± 8.74	0.04 ± 0.04	0.42 ± 0.33	0.72 ± 0.51	19.61 ± 9.01	75.45 ± 6.65	intraocular pressure change ([1]; listed as sample 3): A reduction in intraocular pressure was observed
NH2—RPTRGDCDL—COOH (H-RPTRGDCDL-OH; listed as Homo sapiens) [HU027]	–	–	21.71 ± 0.59	23.27 ± 0.71	23.98 ± 0.79	21.77 ± 0.87	23.07 ± 1.13	23.97 ± 1.14	0.010 ± 0.003	0.016 ± 0.005	0.13 ± 0.13	0.32 ± 0.14	0.44 ± 0.17	8.81 ± 3.57	56.95 ± 9.83	0.17 ± 0.11	0.33 ± 0.22	0.50 ± 0.26	8.20 ± 3.43	61.95 ± 11.30	–
